How the values were obtained:
[1] = mice; cited from earlier work
HepG2 cells = assay: Transwell migration assay, HepG2; format: cell-based; settings: 24 h
Description: Cell migration was evaluated using 8-μm transwell filters (Costar Corning, Schiphol-Rijk, The Netherlands). Cells at a density of 5 × 10^4 were seeded to the upper chamber, and the chamber was filled with FBS-free medium. Cells were incubated overnight to allow for adherence; then, the lower chamber was replaced with 10% FBS medium as a chemo-attractant. Following a 24 h incubation, non-migrating cells on the upper surface of the insert membrane were gently removed by cotton swabs and migrated cells on the lower surface of the insert membrane were fixed by 4% paraformaldehyde and stained with 0.1% crystal violet for 20 min. Migrated cells on each membrane were photographed and counted at 100× magnification field at six random fields.

[2] = test system: A549, HepG2, and PANC-1 cells; assay: MTT cell proliferation assay, other three cancer cell lines; format: cell-based; settings: A549, HepG2, and PANC-1, text summary
Description: (§1) PC-3, LNCaP, RWPE-1, HepG2, A549, and PANC-1 cells were purchased from the National Collection of Authenticated Cell Cultures (Shanghai, China). […] All the above cell cultures were supplied with 10% fetal bovine serum and 1% penicillin-streptomycin. RWPE-1 cells were cultured in keratinocyte serum-free medium (K-SFM, Gibco, New York, NY, USA) supplemented with 50 mg/L bovine pituitary extract and 5 μg/L epidermal growth factor (EGF). All cell lines were grown in a humidified atmosphere of 5% CO2 at 37 °C.
(§2) Cells were seeded in 100 μL complete medium in a 96-well plate, at a density of 10,000 cells/well for LNCaP and 5000 cells/well for other cells. Cells were pre-incubated for 24 h to allow for adherence before removal of complete medium and treatment with various concentrations of compounds in fetal bovine serum (FBS)-free medium for 48 h. After treatment, 20 μL/well MTT (5 mg/mL) was added and incubated for 3–4 h at 37 °C, and then 100 μL/well DMSO was added for MTT assay. The plate was shaken on an orbital shaker for 10 min. Absorbance was measured using a microplate reader at 492 nm for the MTT assay (performed in triplicates). Cell viability was normalized to control. Half inhibitory concentration (IC50) was calculated by SPSS Statistics 17.0. […] The experiments were independently repeated two to three times.

PC-3 cells [3] = assay: UPLC-HRMS cell metabolomics of tryptamine-treated PC-3 cells; format: cell-based, human
Description: The cells were seeded in 10 cm Petri dishes at a density of 1 × 10^6 cells/dish. After incubation overnight for adherence, cells were subjected to treatment with tryptamine (0.3 mM) in FBS-free medium, and control samples were treated with FBS-free medium. […] For cellular metabolite extraction, cells were first washed with PBS for three times, then 8 mL extraction solvent (methanol: acetonitrile: 0.5 M formic acid, 2:2:1 v/v/v) was added for quenching and cell lysis. The mixture was vortexed and sonicated on ice for 15 min to extract metabolites, and then centrifuged at 13,000 rpm for 10 min at 4 °C. The supernatant was collected and dried under vacuum. Before analysis, the sample was reconstituted in 100 μL H2O.
The chromatographic method involved elution with water with 0.1% acetic acid (A) and acetonitrile (B). The gradient program of cell metabolomics was as follows: 0–1 min 98–99% A, 1–3 min 2–30% A, 3–8 min 30–50% A, 8–10 min 50–95% A, 10–15 min 95–95% A. The flow rate was constant at 0.3 mL/min. […] The column was maintained at 35 °C. After each run, the gradient was re-equilibrated to its initial conditions over 6 min. Sample injection volume was 10 μL. The main mass spectrometer parameters were set as follows: capillary temperature 300 °C; capillary voltage and tube lens 20 V and 35 V, respectively, for positive mode, and 40 V and 80 V, respectively, for negative mode; spray voltage 4.0 kV in positive mode, and 2.5 kV and 2.8 kV in negative mode for serum and cell metabolite profiling, respectively; auxiliary gas, sheath gas and sweep gas flow rate 10, 40, and 0 arbitrary units, respectively. Data were acquired in the m/z range of 50–1000. The resolving power was 60,000 at m/z 195. Ultra-high-purity argon (≥99.999%) was used as the collision gas in UPLC–MS/MS experiments, and normalized collision voltages were in the range of 15–55 V.
Raw data was pre-processed using Progenesis QI software version 2.4 (Nonlinear Dynamics, Waters Corporation, Milford, CT, USA), which included peak picking and alignment. A data matrix table containing metabolic peak identity (retention time (Rt and m/z pair)) and peak abundances in samples was obtained. We used our previously designed FORTRAN program for data post-processing, including analyses of adducts, in-source fragments and chloride isotopic ions, contaminant and artefact ion removal, QC-based scaling, and normalization. Principal components analysis (PCA) and oPLS-DA (orthogonal partial least squares-discriminant analysis) were applied for sample classification using the PLS Toolbox software (version 8.9.1, Eigenvector Research, Inc., Manson, WA, USA) based on Matlab R2021a (version 9.10.0, MathWorks, Natick, MA, USA). Differential metabolites were identified with p-value < 0.05 and variance importance in projection (VIP) value greater than 1. The metabolites were identified based on accurate mass matching to theoretical values within a 2 mDa tolerance and MS/MS matching with spectral data in Human Metabolome Database (HMDB) and/or manual analysis of MS/MS spectra (Figure S4). MetaboAnalyst 5.0 was used for metabolic pathway and network analyses.

RWPE-1 cells = assay: MTT cell proliferation assay, RWPE-1; format: cell-based; settings: Homo sapiens, RWPE-1; MTT, 48 h treatment in FBS-free medium; read-out: IC50 Value (Mean ± SD mM) RWPE-1
Description: as §1, §2

PC-3 cells [4] = assay: Annexin V-FITC/PI flow cytometry apoptosis assay; format: cell-based, human; settings: 24 h
Description: Cell apoptosis was assessed by Annexin V-FITC and propidium iodide (PI) staining using an Annexin V-FITC apoptosis detection kit (Thermo Fisher Scientific, Carlsbad, CA, USA) according to the manufacturer’s instructions. Briefly, cells were seeded at a density of 1.0 × 10^5 cells/well and pre-incubated for 24 h to allow for adherence before treatment with various concentrations of tryptamine in an FBS-free medium. After 24 h of tryptamine incubation, cells in each well were harvested and centrifuged at 200× g for 5 min. Cells were washed with PBS and centrifuged at 200× g for 5 min. Cells were resuspended in 100 μL binding buffer, followed by staining with 5 μL Annexin V-FITC and 5 μL PI, and incubation on ice in the dark for 15 min after addition of each staining reagent. Subsequently, a 300 μL binding buffer was added to the sample and apoptotic cells were detected by a flow cytometer (NovoCyte; ACEA Biosciences Inc., San Diego, CA, USA).

[5] = 0.3 mM, treatment/control ratio, negative = decreased

In the case of NCCc1c[nH]c2ccccc12 [Tryptamine], the “median lethal dose (LD50)” value [1] is given as ~ 200 mg/kg, the “migrated cells compared with the control” value (HepG2 cells; HepG2, 0.075 mM) is given as “no significant difference” and the “percentage of migrated cells” value (HepG2 cells; HepG2, 0.15 mM) is given as 77%. For the same molecule, the “percentage of migrated cells” value (HepG2 cells; HepG2, 0.3 mM) was 55%, the IC50 [2] was 350 to 460 µM and the “Fold Change of ketoleucine” value (PC-3 cells [3]; 0.3 mM, treatment/control ratio) was 0. For the same molecule, the “Fold Change of arginine” value (PC-3 cells [3]; [5]) was −1.9, the “Fold Change of aspartic acid” value (PC-3 cells [3]; [5]) was −3.2 and the “Fold Change of creatine” value (PC-3 cells [3]; [5]) was −2.0. The “Fold Change of pantothenic acid” value (PC-3 cells [3]; [5]) was −1.6, the “Fold Change of proline” value (PC-3 cells [3]; [5]) was −2.0 and the “Fold Change of spermidine” value (PC-3 cells [3]; [5]) was −2.1. The “Fold Change of spermine” value (PC-3 cells [3]; [5]) was −2.1, the “Fold Change of 5-HT” value (PC-3 cells [3]; 0.3 mM, treatment/control ratio, positive = increased) was 1.4 × 10^3 and the “aspartic acid, fold decrease compared to the control group” value (PC-3 cells [3]; tryptamine treated group) was 3.2 fold. The IC50 (RWPE-1 cells) was 0.71 ± 0.06 mM, the “apoptotic cell populations (early and late apoptosis)” value (PC-3 cells [4]; PC-3, 0.2 mM) was 12.1% and the “apoptotic cell populations (early and late apoptosis)” value (PC-3 cells [4]; PC-3, 0.3 mM) was 21.4%.

Reference: article PMC9569450, “Dual Effect of Tryptamine on Prostate Cancer Cell Growth Regulation: A Pilot Study” (International Journal of Molecular Sciences, 2022)
